Measurements from ChEMBL document CHEMBL1201862, “PubChem BioAssay data set” (2004).
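Exposure lasted 48 hours, with cells grown in 96-well plates and compounds tested at five concentrations. At the GI50, growth is halved.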 Calls of active or inactive are those of the source. Rule as the data show it: active = GI50 up to about 1.1 µM and inactive = higher.

Key:
Test in all cases: NCI-60 cell line screen, 48 h
K562 = test system: K562
M14 = test system: M14
SK-MEL-2 = test system: SK-MEL-2
SK-MEL-28 = test system: SK-MEL-28
SF-539 = test system: SF-539
RXF 393 = test system: RXF 393
Malme-3M = test system: Malme-3M
LOX IMVI = test system: LOX IMVI
SK-MEL-5 = test system: SK-MEL-5
UACC-62 = test system: UACC-62
NCI-H226 = test system: NCI-H226
HOP-92 = test system: HOP-92
HCT-116 = test system: HCT-116
NCI-H522 = test system: NCI-H522
IGROV-1 = test system: IGROV-1
SK-OV-3 = test system: SK-OV-3
SNB-75 = test system: SNB-75
RPMI-8226 = test system: RPMI-8226
OVCAR-8 = test system: OVCAR-8
SNB-19 = test system: SNB-19

Measured: GI50

COc1cc2c(cc1OC)-c1cc3ccccc3c[n+]1CC2
inactive: K562 48.4 µM | M14 > 100 µM | SK-MEL-2 > 100 µM | SK-MEL-28 > 100 µM | SF-539 > 100 µM | RXF 393 > 100 µM | Malme-3M 25.4 µM | LOX IMVI > 100 µM | SK-MEL-5 22.9 µM | UACC-62 > 100 µM | NCI-H226 > 100 µM | HOP-92 > 100 µM | HCT-116 > 100 µM | NCI-H522 18.8 µM | IGROV-1 > 100 µM | SK-OV-3 > 100 µM | SNB-75 > 100 µM | RPMI-8226 36.6 µM | OVCAR-8 > 100 µM | SNB-19 > 100 µM
